According to publication PMC11823630, “In vitro potentiation of tetracyclines in Pseudomonas aeruginosa by RW01, a new cyclic peptide” (Antimicrobial Agents and Chemotherapy, 2024):
Converted amounts (≈) assume the structure as drawn.

How the values were obtained:
[1] = system: PAO1 mutant MIN1_RW01_2, mexR(G58E), pilB(G326D), hutC(Y181X); assay: MIC, E-test on MHA; format: cell-based; details: Pseudomonas aeruginosa, PAO1, read-out: MIC, E-test
[2] = system: PAO1 mutant MIN1_RW01_4, pmrB(F124L); assay: MIC, E-test on MHA; format: cell-based; details: Pseudomonas aeruginosa, PAO1, read-out: MIC, E-test
[3] = system: PAO1 mutant MIN2_RW01_4, pmrB(M292T); assay: MIC, E-test on MHA; format: cell-based; details: Pseudomonas aeruginosa, PAO1, read-out: MIC, E-test
[4] = system: PAO1 mutant MIN4_RW01_1, pmrB(R429H); assay: MIC, E-test on MHA; format: cell-based; details: Pseudomonas aeruginosa, PAO1, read-out: MIC, E-test
[5] = system: PAO1 mutant MIN8_3, pilZ(nt18InsT); assay: MIC, E-test on MHA; format: cell-based; details: Pseudomonas aeruginosa, PAO1, read-out: MIC, E-test
[6] = system: PAO1 mutant MIN8_4, pilZ(nt18InsT); assay: MIC, E-test on MHA; format: cell-based; details: Pseudomonas aeruginosa, PAO1, read-out: MIC, E-test
[7] = system: PAO1 mutant MIN32_1, mexR(R63H), pilB(N349K), PA0646(V316G); assay: MIC, E-test on MHA; format: cell-based; details: Pseudomonas aeruginosa, PAO1, read-out: MIC, E-test
P. aeruginosa PAO1 [8] = assay: MIC in the presence of 25% mouse serum; details: for MIC: Pseudomonas aeruginosa
P. aeruginosa PAO1 [9] = assay: Checkerboard assay with RW01; format: cell-based, Pseudomonas aeruginosa; details: for average FIC Index: antibiotic combined with RW01, checkerboard, AST broth, 37°C, 18–22 h, three biological replicates
Method: (§1) To assess the in vitro interaction between RW01 and tetracyclines, the checkerboard assay method was performed in 96-well microtiter plates using strains PAO1 and PAOUW. In the same way as for MIC determination, BD Phoenix AST Broth (Becton Dickinson) medium was used for bacterial growth. Minocycline and tigecycline combined with RW01 were the agents selected for the assay. A column and a row of wells in the checkerboard plate were reserved for controls of each antimicrobial individually to ensure the proper concentration of the agents. Positive and negative controls were also included. Wells in rows contained serial dilutions of RW01 starting from 512 mg/L, while those in columns varied in concentrations of the antibiotic. Inoculum at ~5 × 10⁵ CFU/mL, antibiotic, RW01, and AST broth were added to a final volume of 200 µL. Plates were incubated at 37°C for 18–22 h under aerobic conditions. Three biological replicates were obtained. Fractional inhibitory concentration index (FICI) is defined as the summatory of fractional inhibitory concentrations (FICs) from compound A: RW01, and compound B: minocycline/tigecycline. FICs were calculated as:
(§2) FIC of RW01 (FICRW01)=MIC of RW01 in combination/MIC of RW01 alone,FIC of antibiotic (FICATB)=MIC of ATB in combination/MIC of ATB alone,FICI=FICRW01 +FICATB.
(§3) FICI was interpreted as follows: synergistic effect if FICI is ≤0.5; additive effect if 0.5 < FICI ≤ 1.0; indifferent effect if 1.0 < FICI ≤ 2.0; and finally, antagonistic effect if FICI is >2.0. The average FICI considering the antibiotic MIC (no growth in any of the replicates) at different concentrations of RW01 was calculated ([28]).

P. aeruginosa PAOUW = assay: Checkerboard assay with RW01; format: cell-based, Pseudomonas aeruginosa; details: for average FIC Index: antibiotic combined with RW01, checkerboard, AST broth, 37°C, 18–22 h, three biological replicates
Method: as §1, §2, §3

P. aeruginosa PAO1 [10] = assay: One-step mutant generation and resistant population analysis on MHA; format: cell-based, Pseudomonas aeruginosa
Method: Selection of resistant mutants was performed for minocycline with and without RW01 in three independent replicates for wild-type P. aeruginosa reference strain PAO1. Tubes containing Mueller-Hinton broth (MHB) were inoculated and incubated for 24 h at 37°C. Afterward, 1/100 dilution of each tube was incubated at 37°C in MHB to late-exponential growth phase, measured by spectrophotometry at OD600. […] A control plate without antibiotic was included as inoculum control. After overnight incubation, colony counting of each treatment was performed to analyze the generation of resistant population. The mutant prevention concentration (MPC) was defined as the lowest concentration of antibiotic yielding no growth of resistant mutants. Selected mutants were checked for susceptibility profiles by using a Sensititre custom plate (Thermo Fisher Scientific, Massachusetts, USA) for Gram-negative bacteria, following the manufacturer’s instructions.

P. aeruginosa PAO1, WT = assay: MIC, MHB microdilution
[11] = system: PAO1 mutant MIN1_RW01_2, mexR(G58E), pilB(G326D), hutC(Y181X); assay: MIC, MHB microdilution; details: Pseudomonas aeruginosa, PAO1, read-out: MIC, MHB microdilution
[12] = system: PAO1 mutant MIN2_RW01_2, pmrB(M292T); assay: MIC, MHB microdilution; details: Pseudomonas aeruginosa, PAO1, read-out: MIC, MHB microdilution
[13] = system: PAO1 mutant MIN8_1, nalD(R3C), pilM(Q62X); assay: MIC, MHB microdilution; details: Pseudomonas aeruginosa, PAO1, read-out: MIC, MHB microdilution
[14] = system: PAO1 mutant MIN8_3, pilZ(nt18InsT); assay: MIC, MHB microdilution; details: Pseudomonas aeruginosa, PAO1, read-out: MIC, MHB microdilution
[15] = system: PAO1 mutant MIN8_4, pilZ(nt18InsT); assay: MIC, MHB microdilution; details: Pseudomonas aeruginosa, PAO1, read-out: MIC, MHB microdilution
[16] = system: PAO1 mutant MIN16_1, nalD(T43P); assay: MIC, MHB microdilution; details: Pseudomonas aeruginosa, PAO1, read-out: MIC, MHB microdilution
[17] = system: PAO1 mutant MIN16_2, nalC(aa9∆4), pilQ(nt46∆1); assay: MIC, MHB microdilution; details: Pseudomonas aeruginosa, PAO1, read-out: MIC, MHB microdilution
[18] = system: PAO1 mutant MIN16_3, nfxB(nt79∆14), pilB(N349K); assay: MIC, MHB microdilution; details: Pseudomonas aeruginosa, PAO1, read-out: MIC, MHB microdilution
[19] = system: PAO1 mutant MIN16_4, nalC(T50P), pilM(Q62X); assay: MIC, MHB microdilution; details: Pseudomonas aeruginosa, PAO1, read-out: MIC, MHB microdilution
10 P. aeruginosa strains = assay: MIC with and without RW01, summary over the strain collection; format: cell-based, Pseudomonas aeruginosa; details: RW01 100 mg/L; all strains tested
Method: MIC for RW01 was also tested.

Row | SMILES | MIC [1] | MIC [2] | MIC [3] | MIC [4] | MIC [5] | MIC [6] | MIC [7] | interaction with RW01 (checkerboard) (P. aeruginosa PAO1 [9]) | average FIC Index (P. aeruginosa PAO1 [9]) | interaction with RW01 (checkerboard) (P. aeruginosa PAOUW) | average FIC Index (P. aeruginosa PAOUW) | other results
1 | C[C@H]1c2cccc(O)c2C(=O)C2=C(O)[C@]3(O)C(=O)C(C(N)=O)=C(O)[C@@H](N(C)C)[C@@H]3[C@@H](O)[C@@H]21 [Doxycycline, doxycycline] | 256 µg/mL (≈ 576 µM) | 96 µg/mL (≈ 216 µM) | 64 µg/mL (≈ 144 µM) | 256 µg/mL (≈ 576 µM) | 128 µg/mL (≈ 288 µM) | 256 µg/mL (≈ 576 µM) | 256 µg/mL (≈ 576 µM) |  |  |  |  | MIC in the presence of serum (P. aeruginosa PAO1 [8]; PAO1, antibiotic alone, 25% non-inactivated C57BL/6RJ mouse serum): unchanged; MIC + RW01 in the presence of serum (P. aeruginosa PAO1 [8]; PAO1, antibiotic with RW01 100 mg/L, 25% non-inactivated C57BL/6RJ mouse serum): unchanged
2 | CN(C)c1ccc(O)c2c1C[C@H]1C[C@H]3[C@H](N(C)C)C(O)=C(C(N)=O)C(=O)[C@@]3(O)C(O)=C1C2=O [Minocycline, minocycline] |  |  |  |  |  |  |  | additive | 0.535 | synergistic | 0.406 | mutant prevention concentration (MPC) (P. aeruginosa PAO1 [10]; PAO1, minocycline alone, three independent replicates): 32 to 64 mg/L; mutant prevention concentration (MPC) with RW01 (P. aeruginosa PAO1 [10]; PAO1, minocycline co-administered with RW01 100 mg/L): 8 mg/L; MIC (P. aeruginosa PAO1 [10]; Pseudomonas aeruginosa, PAO1, read-out: MIC (population studies)): 4 to 8 µg/mL (≈ 8.74 to 17.5 µM); MIC of MIN + RW01, MHB microdilution (P. aeruginosa PAO1, WT; PAO1 WT, minocycline MIC in combination with RW01, listed as MIN): 0.5 to 1 µg/mL; MIC (P. aeruginosa PAO1, WT; Pseudomonas aeruginosa, PAO1, read-out: MIC, MHB microdilution): 4 to 8 µg/mL (≈ 8.74 to 17.5 µM); MIC [11]: 32 to 64 µg/mL (≈ 69.9 to 140 µM); MIC [12]: 16 to 32 µg/mL (≈ 35 to 69.9 µM); MIC [13]: 16 µg/mL (≈ 35 µM); MIC [14]: 16 µg/mL (≈ 35 µM); MIC [15]: 16 µg/mL (≈ 35 µM); MIC [16]: 16 µg/mL (≈ 35 µM); MIC [17]: 16 µg/mL (≈ 35 µM); MIC [18]: 16 to 32 µg/mL (≈ 35 to 69.9 µM); MIC [19]: 16 µg/mL (≈ 35 µM); MIC (P. aeruginosa PAO1 [8]; PAO1, read-out: MIC + RW01 in the presence of serum): 4 µg/mL; MIC (P. aeruginosa PAO1 [8]; PAO1, read-out: MIC in the presence of serum): 32 µg/mL
3 | CN(C)c1cc(NC(=O)CNC(C)(C)C)c(O)c2c1C[C@H]1C[C@H]3[C@H](N(C)C)C(O)=C(C(N)=O)C(=O)[C@@]3(O)C(O)=C1C2=O [Tigecycline, tigecycline] | 32 µg/mL (≈ 54.6 µM) | 24 µg/mL (≈ 41 µM) | 16 µg/mL (≈ 27.3 µM) | 16 µg/mL (≈ 27.3 µM) | 16 µg/mL (≈ 27.3 µM) | 32 µg/mL (≈ 54.6 µM) | 24 µg/mL (≈ 41 µM) | additive | 0.677 | synergistic | 0.446 | MIC reduction on combination with RW01 over the strains (10 P. aeruginosa strains): four- to eightfold
